# Read-outs that look alike come from different tables or passages of the source.
# Legend:
# subjects with anemia [1] = details: human, in vivo
# Text: (§2) Study A was a single-center, single-dose escalation, randomized, double-blind, placebo-controlled pharmacokinetic study. Subjects were male and female, between 18 and 45 years of age, inclusive, with mild iron-deficiency anemia. […] Examined pharmacokinetic parameters included total serum iron and pharmacodynamic (serum ferritin and transferrin, iron binding capacity, % TSATpost, hemoglobin, reticulocyte, and serum transferrin receptor concentrations) endpoints. Examined safety parameters included adverse events, clinical laboratory evaluations, vital signs, ECG, and physical examinations.
# (§3) Study B was a single-center, single-dose, open label, uncontrolled pharmacokinetic study. Subjects were between 18 and 75 years of age with iron-deficiency or renal anemia with no other cause of anemia. Inclusion criteria included hemoglobin concentration between 9 and 13 g/dL, no blood transfusions in the previous 3 months, and no history of treatment with intravenous iron in the last 2 weeks. […] Examined primary pharmacokinetic parameters included the distribution of ^52Fe and incorporation of ^59Fe into red blood cells. Examined safety parameters included adverse events, clinical laboratory evaluations, vital signs, and physical examinations.
# (§4) Study C was an open-label, multicenter, randomized, multiple-dose, active-controlled postpartum anemia study. […] Where screening serum transferrin saturation (TSAT) was 20% or screening ferritin was 50 ng/mL, dosage=pre-pregnancy weight (kg)×(15−baseline hemoglobin [g/dL])×2.4+500 mg. Where screening TSAT was >20% and screening ferritin was >50 ng/mL, dosage=pre-pregnancy weight (kg)×(15−baseline hemoglobin [g/dL])×2.4. […] For primary efficacy, “success” was defined as an increase in hemoglobin of ≥2 g/dL anytime between baseline and end of study or time of intervention, while “failure” was defined as <2 g/dL increase in hemoglobin at all times between baseline and end of study or time of intervention. Examined safety parameters included adverse events, clinical laboratory evaluations, vital signs, and physical examinations.
# (§5) Study D was a multicenter, open-label, randomized, active-controlled, multiple-dose postpartum anemia study. Subjects were adult women ≥18 years old with postpartum anemia within 6 days after delivery. Treatment was administered once-weekly for a maximum of 3 infusions. […] Patients ≤66 kg received a minimum dose of 200 mg and a maximum dose of 15 mg iron/kg during each infusion. Patients >66 kg received a dose of 1000 mg on the first dosing occasion, and a minimum dose of 200 mg and a maximum dose of 1000 mg at each subsequent dosing. Doses of 200-400 mg were diluted in 100 cc NSS and 500-1000 mg were diluted in 250 cc NSS. Primary efficacy was examined as change from baseline levels of hemoglobin to Week 12. Examined safety parameters included adverse events in the mother and breast-fed infant, adverse events leading to discontinuation of treatment, vital signs, 12-lead electrocardiogram (ECG), physical examinations, and clinical laboratory panels.
# (§6) Study E was a multicenter, open-label, randomized, active-controlled, multiple-dose hemodialysis-associated anemia study.
# subjects with anemia [2] = assay: Integrated safety studies (10 clinical studies A-J)
# Text: as §2, §3, §4, §5, §6
# [3] = isotonic; cited from earlier work
# [4] = light scattering; cited from earlier work
# [5] = in vivo; cited from earlier work
# [6] = Iron (III) Control Release Test; format: physicochemical
# [7] = Core and particle size of iron carbohydrate complexes (electron micrographs); format: physicochemical
# Text: FIG. 1A-FIG. 1C are a series of electron micrographs that depict the particle size of three iron carbohydrate complexes. […] FIG. 1B is an electron micrograph depicting the particle size of Venofer® (an iron sucrose).
# It is within the skill of the art to test various characteristics of iron carbohydrate complexes as so determine amenability to use in the methods described herein. For example, pH and osmolarity are straightforward determinations performed on a sample formulation. Likewise, techniques such as electron micrograph imaging, transmission electron microscopy, and atomic force microscopy provide direct methods to analyze both iron core and particle size. See e.g., FIG. 1; Table 1. The stability of the carbohydrate complex can be assessed through physicochemical properties such as kinetic characteristics, thermodynamic characteristics, and degradation kinetics. See, Geisser et al. (1992) Arzneimittelforschung 42(12):1439-1452. […] Pharmacokinetics can be assessed, for example, by iron tracer experiments. Hypersensitivity reactions can be monitored and assessed as described in, for example, Bailie et al. (2005) Nephrol. […] Safety, efficacy, and toxicity in human subjects can be assessed, for example, as described in Spinowitz et al. (2005) Kidney Intl. […]
# [8] = pH and osmolarity of the iron carbohydrate complex; format: physicochemical
# Text: It is within the skill of the art to test various characteristics of iron carbohydrate complexes as so determine amenability to use in the methods described herein. For example, pH and osmolarity are straightforward determinations performed on a sample formulation. Likewise, techniques such as electron micrograph imaging, transmission electron microscopy, and atomic force microscopy provide direct methods to analyze both iron core and particle size. See e.g., FIG. 1; Table 1. The stability of the carbohydrate complex can be assessed through physicochemical properties such as kinetic characteristics, thermodynamic characteristics, and degradation kinetics. See, Geisser et al. (1992) Arzneimittelforschung 42(12):1439-1452. Useful techniques to assess physical and electronic properties include absorption spectroscopy, X-ray diffraction analysis, transmission electron microscopy, atomic force microscopy, and elemental analysis. See, Kudasheva et al. (2004) J. Inorg. Biochem. 98:1757-1769. Pharmacokinetics can be assessed, for example, by iron tracer experiments. Hypersensitivity reactions can be monitored and assessed as described in, for example, Bailie et al. (2005) Nephrol. Dial. Transplant 20(7):1443-1449. Safety, efficacy, and toxicity in human subjects can be assessed, for example, as described in Spinowitz et al. (2005) Kidney Intl. 68:1801-1807.
# dextran antibodies = assay: Reaction with dextran antibodies / dextran antigenicity test
# [9] = PET pharmacokinetic study of 52Fe/59Fe labelled VIT-45 after i.v. administration; format: in vivo, human
# Text: See e.g., Beshara et al. (2003) Br. J. Haematol. 120(5): 853-859.
# (§1) There was negligible renal elimination.
# [10] = Pharmacokinetic studies (total serum iron) in patients with iron deficiency anemia; format: in vivo, human
# Text: as §1
# rats [11] = assay: Single dose toxicity in rats; format: in vivo
# rodents = assay: Single-dose toxicity studies, intravenous, rodents; format: in vivo
# dogs [12] = assay: Single-dose toxicity studies, intravenous, dogs; format: in vivo
# dogs [13] = assay: Pre-clinical 13-week cumulative dose study in dogs; format: in vivo; details: over 13 weeks
# rats [14] = assay: Pre-clinical 13-week cumulative dose study in rats; format: in vivo; details: over 13 weeks
# rabbit = assay: Intra-arterial, perivenous, intravenous tolerance studies; format: in vivo
# [15] = In vitro and in vivo mutagenicity tests
# patients (Hb levels) = assay: Multiple dose efficacy study, Cohorts 1 and 2 (Hb levels); format: in vivo, human
# Text: Efficacy of iron replacement therapy is interpreted mainly in terms of the ability to normalize Hb levels and iron stores. […] In one study, 37% and 48% of patients in Cohorts 1 and 2, respectively, had achieved normal Hb levels at the 4-week follow-up visit, and 75% and 73%, respectively, had achieved a ≥20 g/L increase in Hb on at least 1 occasion.
# [16] = system: patients receiving regular hemodialysis; assay: Multiple dose efficacy study in patients receiving regular hemodialysis; format: in vivo, human
# Text: However, elevated levels of ferritin and TfS indicating iron overload were avoided. In both of these studies, there was a gradual decrease in transferrin over time, also indicating successful iron replacement.
# patients = assay: Efficacy studies: pharmacodynamic effects (serum iron, TfS, serum ferritin); format: in vivo, human; details: single and repeated doses
# Text: The increase in serum ferritin levels illustrated the replenishment of the depleted iron stores, which is a well-identified and desired effect of iron therapy.
# [17] = system: patients with iron deficiency anemia or renal anemia; assay: Safety assessments in patients with iron deficiency anemia and renal anemia; format: in vivo, human
# mice = assay: Single dose toxicity in mice
# [18] = Single dose toxicity (LD50, acute toxicity); details: in vivo
# [19] = calculated dose/first-dose 1,000 mg studies
substance,measurement,setting,value
"ferrous sulfate [oral iron, reference compound]",incidence of drug-related treatment-emergent adverse events of hypersensitivity,subjects with anemia [1],0.2%
same,incidence of premature discontinuation due to adverse events,subjects with anemia [2],3.1%
same,incidence of adverse events associated with investigations,subjects with anemia [2]; [19],3.9%
same,incidence of gastrointestinal disorders,subjects with anemia [2]; [19],31.0%
same,incidence of skin and subcutaneous tissue disorders,subjects with anemia [2]; [19],2.4%
same,incidence of treatment-emergent adverse events on the first day of dosing,subjects with anemia [2]; [19],2.7%
same,overall incidence of treatment-emergent adverse events,subjects with anemia [2]; [19],51.2%
same,incidence of adverse events leading to discontinuation,subjects with anemia [2]; completed multicenter studies,2.1%
same,incidence of gastrointestinal events,subjects with anemia [2]; completed multicenter studies,31.0%
same,incidence of premature discontinuations,subjects with anemia [2]; completed multicenter studies,9.6%
same,overall incidence of treatment-emergent adverse events,subjects with anemia [2]; completed multicenter studies,51.2%
polyglucose sorbitol carboxymethyl ether-coated non-stoichiometric magnetite [ferumoxytol],osmolarity,[3],297 mOsm/kg
same,average colloidal particle size,[4],about 30 nm
same,blood half-life,[5],10 to 14 h
"polynuclear iron (III)-hydroxide 4(R)-(poly-(1→4)-O-α-D-glucopyranosyl)-oxy-2(R),3(R),5(R),6-tetrahydroxy-hexanoate [VIT-45]",Iron (III) Control Release Test T75,[6],117.8 min
same,"Size of the Particle +/- SEM, Iron core",[7],4.4 ± 1.4 nm
same,"Size of the Particle +/- SEM, Total Particle",[7],6.7 ± 2.5 nm
same,osmolarity,[8],physiological osmolarity
same,reaction with dextran antibodies,dextran antibodies,does not react with dextran antibodies
same,specific responses in dextran antigenicity test,dextran antibodies,no specific responses
same,calculated terminal half-life (t1/2),"[9]; i.v., patients",approximately 16 hours
same,distribution after intravenous administration,"[9]; in vivo, iv","mainly found in the liver, spleen, and bone marrow"
same,maximal total serum iron concentration (Cmax),[10]; 500 mg dose,approximately 150 μg/mL
same,maximal total serum iron concentration (Cmax),[10]; 1000 mg dose,~320 µg/mL
same,renal elimination,"[10]; human, in vivo",negligible
same,highest non-lethal dose level,rats [11],1000 mg iron/kg b.w.
same,"safe and tolerated intravenous dose relative to 1,000 mg iron once weekly in humans",rodents,up to 60 times
same,"safe and tolerated intravenous dose relative to 1,000 mg iron once weekly in humans",dogs [12],up to 60 times
same,"cumulative dose with no observed adverse effect level (clinical signs of iron accumulation in liver, spleen, kidneys)",dogs [13],up to 117 mg iron/kg body weight
same,"cumulative dose with no observed adverse effect level (clinical signs of iron accumulation in liver, spleen, kidneys)",rats [14],up to 117 mg iron/kg body weight
same,treatment-related local tissue irritation,rabbit,No treatment-related local tissue irritation
same,"clastogenic, mutagenic, chromosomal damage or bone marrow cell toxicity",[15],no evidence
same,patients who achieved a ≥20 g/L increase in Hb on at least 1 occasion,patients (Hb levels); Cohort 1,75%
same,patients who achieved normal Hb levels,"patients (Hb levels); Cohort 1, 4-week follow-up visit",37%
same,patients who achieved a ≥20 g/L increase in Hb on at least 1 occasion,patients (Hb levels); Cohort 2,73%
same,patients who achieved normal Hb levels,"patients (Hb levels); Cohort 2, 4-week follow-up visit",48%
same,patients who achieved an increase of Hb of ≥10 g/L at any point during the study,[16],61.7%
same,main pharmacodynamic effects,patients,"transient elevations of serum iron levels, TfS and serum ferritin"
same,iron overload,[17]; dosing schedules of the studies,Iron overload was avoided
same,deaths attributed to treatment,[17]; repeated-dose studies,no deaths
same,laboratory values reported as treatment-related treatment-emergent adverse events,[17]; repeated-dose studies,6 patients
same,patients who experienced serious adverse events (considered not related),[17]; repeated-dose studies,10 patients
same,withdrawals considered possibly related to treatment (allergic skin reactions),[17]; repeated-dose studies,2 withdrawals
same,serious adverse events or withdrawals due to adverse events,[17]; single-dose studies,no serious adverse events or withdrawals
same,changes in vital signs evaluations,subjects with anemia [1],no clinically meaningful changes
same,deaths attributed to treatment,subjects with anemia [1],no deaths
same,drug-related mild or moderate hypotension,subjects with anemia [1],0.2%
same,"drug-related mild or moderate hypotension, number of subjects",subjects with anemia [1],4 subjects
same,incidence of drug-related treatment-emergent adverse events of hypersensitivity,subjects with anemia [1],0.2%
same,median time to recovery of blood phosphate,subjects with anemia [1],approximately 2 weeks
same,"overall incidence of treatment-emergent adverse events, 200 mg versus 1000 mg doses",subjects with anemia [1],similar
same,"treatment-emergent adverse events indicative of potential allergic reactions (rash, pruritus, urticaria)",subjects with anemia [1],< 2%
same,highest non-lethal dose level,mice,1000 mg iron/kg b.w.
same,signs of illness,mice; single dose 250 mg iron/kg b.w. injected within 2 seconds,no signs of illness
same,acute toxicity relative to iron sucrose,[18],one-fifth
same,incidence of premature discontinuation due to adverse events,subjects with anemia [2],2.1%
same,treatment-emergent adverse event: abdominal pain,subjects with anemia [2]; 1095 VIT-45 subjects,2.5%
same,treatment-emergent adverse event: blood phosphate decreased,subjects with anemia [2]; 1095 VIT-45 subjects,2.4%
same,treatment-emergent adverse event: headache,subjects with anemia [2]; 1095 VIT-45 subjects,8.6%
same,treatment-emergent adverse event: hypertension,subjects with anemia [2]; 1095 VIT-45 subjects,2.2%
same,treatment-emergent adverse event: hypotension,subjects with anemia [2]; 1095 VIT-45 subjects,2.0%
same,treatment-emergent adverse event: nasopharyngitis,subjects with anemia [2]; 1095 VIT-45 subjects,2.0%
same,treatment-emergent adverse event: nausea,subjects with anemia [2]; 1095 VIT-45 subjects,2.4%
same,incidence of other serious adverse events,subjects with anemia [2]; all completed multicenter studies,3%
same,drug-related treatment-emergent adverse event: blood phosphate decreased,subjects with anemia [2]; [19],3.3%
same,drug-related treatment-emergent adverse event: headache,subjects with anemia [2]; [19],3.9%
same,incidence of adverse events associated with investigations,subjects with anemia [2]; [19],9.1%
same,incidence of gastrointestinal disorders,subjects with anemia [2]; [19],15.2%
same,incidence of skin and subcutaneous tissue disorders,subjects with anemia [2]; [19],7.3%
same,incidence of treatment-emergent adverse events on the first day of dosing,subjects with anemia [2]; [19],6.8%
same,overall incidence of treatment-emergent adverse events,subjects with anemia [2]; [19],49.5%
same,incidence of adverse events leading to discontinuation,subjects with anemia [2]; completed multicenter studies,1.8%
same,incidence of gastrointestinal events,subjects with anemia [2]; completed multicenter studies,12.8%
same,incidence of premature discontinuations,subjects with anemia [2]; completed multicenter studies,10%
same,overall incidence of treatment-emergent adverse events,subjects with anemia [2]; completed multicenter studies,49.5%
same,serious adverse events or withdrawals due to related adverse events,"subjects with anemia [2]; open label clinical trials, about 1700 subjects, up to 1,000 mg over 15 minutes i.v.",no serious adverse events or withdrawals
same,incidence of other serious adverse events,"subjects with anemia [2]; placebo-controlled, single-dose crossover study",0.3%
same,time after initial dose at which decreases in blood phosphate were apparent,"subjects with anemia [2]; transient, asymptomatic",approximately 7 days

# From patent US11364260B2, “Methods and compositions for administration of iron” (American Regent, Inc., priority 2006, dated 2022)
